Test results: patent US20200383906A1 (Evestra, Inc., priority 2019, published 2020)
Entries after “also recorded” stand apart in the source; their conditions may differ. Like-named read-outs stand apart in the source and are kept apart here.

Assays:
[1] = human, cited from earlier work
[2] = young women, 2.0 and 4.0 mg orally; cited from earlier work
ovulation = assay: Clinical study of vaginal rings: ovulation inhibition, follicular maturation; format: in vivo, women; conditions: used release rate of estriol alone
Protocol: Testing of three vaginal ring prototypes (Device 1, Device 2, and Device 3, described above) in 12 women as preformed. The expected average release rate per day of each device is described in Table 2. Vaginal ring (VR) insertion was performed after pill cycle completion and menstrual bleeding. Observation of a VR over a period of 21 days. Follow-up after removal of the VR. All VR variants tested inhibit ovulation. Ovulation inhibition persisted for more than 7 days after removal of the rings. Signs of follicular maturation at the start of treatment (higher oestradiol levels) disappear during treatment. The effect reflects inhibition of follicular maturation. For the most part, there were no bleeding events during treatment at all and, where they did occur, only to a very small extent (“spotting”). Withdrawal bleeding was observed only after the highest trimegestone dosage.
The course of the estradiol levels in the circulation reflects follicular maturation in the ovary. FIG. 5 depicts the individual serum concentrations of estradiol during single vaginal application of Device 3. […] After removal of the vaginal ring, the estradiol values increase starting from baseline. This increase reflects follicular maturation. […] FIG. 6 depicts the individual serum concentrations of progesterone during single vaginal application of Device 3. […]

ovariectomized rodents = conditions: parenteral administration; cited from earlier work
SHBG = conditions: women, entire range of tested doses; cited from earlier work
ovine genital organs = assay: Experiments in sheep: estrogenic effect of estriol under trimegestone; format: in vivo; conditions: on trimegestone
Excerpt: This estrogenic effect in the genital tract in the presence of a progestogen leads to prevention of spotting and intermenstrual bleeding in humans. Such bleedings on the “pill” are an expression of an endometrial estrogen deficiency.

estrogen receptor ERß = estrogen receptor ERß (Homo sapiens, UniProt Q92731); conditions: cited from earlier work
Sequence of estrogen receptor ERß (Q92731 whole entry): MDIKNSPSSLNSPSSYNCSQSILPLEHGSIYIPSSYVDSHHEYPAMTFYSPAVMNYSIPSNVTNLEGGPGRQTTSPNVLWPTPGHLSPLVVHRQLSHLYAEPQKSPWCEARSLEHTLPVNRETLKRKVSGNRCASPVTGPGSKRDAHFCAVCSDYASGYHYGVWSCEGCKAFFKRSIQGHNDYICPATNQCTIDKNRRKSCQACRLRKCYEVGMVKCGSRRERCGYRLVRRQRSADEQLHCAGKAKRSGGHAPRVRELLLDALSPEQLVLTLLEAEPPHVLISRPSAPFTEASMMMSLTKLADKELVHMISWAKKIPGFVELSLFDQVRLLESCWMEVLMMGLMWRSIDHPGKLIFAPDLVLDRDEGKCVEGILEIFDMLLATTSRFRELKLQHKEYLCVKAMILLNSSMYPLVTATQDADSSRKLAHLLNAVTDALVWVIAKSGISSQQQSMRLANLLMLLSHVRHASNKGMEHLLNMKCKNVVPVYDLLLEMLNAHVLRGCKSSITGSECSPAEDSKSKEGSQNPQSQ

C#C[C@]1(O)CC[C@H]2[C@@H]3CCc4cc(O)ccc4[C@H]3CC[C@@]21C [EE, 17α-ethinyl estradiol]
Oral bioavailability ([1]; oral vs intravenous): about 40%
First pass effect ([1]; oral): 60%

C[C@]12CC[C@@H]3c4ccc(O)cc4CC[C@H]3[C@@H]1CC[C@@H]2O [Estradiol-17ß]
Oral bioavailability [2]: 4.9+/−5%

C[C@]12CC[C@@H]3c4ccc(O)cc4CC[C@H]3[C@@H]1C[C@@H](O)[C@@H]2O [estriol]
Levels of FSH and LH (ovulation): decreased
Estrogenic potency compared with estradiol (ovariectomized rodents): about factor ten weaker
Changes in surrogate parameter SHBG (SHBG): no relevant changes were seen
Estrogenic effect of estriol in the genital tract in the presence of trimegestone (ovine genital organs): is not inhibited; also recorded: are not attenuated
Binding with ERß compared with estradiol (estrogen receptor ERß): weaker and less stable binding
